Results taken from article PMC9274761, “Effects of Structurally Different HDAC Inhibitors against Trypanosoma cruzi, Leishmania, and Schistosoma mansoni” (ACS Infectious Diseases, 2022).

Biological target: T1, HDAC6 (Homo sapiens, UniProt Q9UBN7)
T1 sequence (Q9UBN7 1-1215): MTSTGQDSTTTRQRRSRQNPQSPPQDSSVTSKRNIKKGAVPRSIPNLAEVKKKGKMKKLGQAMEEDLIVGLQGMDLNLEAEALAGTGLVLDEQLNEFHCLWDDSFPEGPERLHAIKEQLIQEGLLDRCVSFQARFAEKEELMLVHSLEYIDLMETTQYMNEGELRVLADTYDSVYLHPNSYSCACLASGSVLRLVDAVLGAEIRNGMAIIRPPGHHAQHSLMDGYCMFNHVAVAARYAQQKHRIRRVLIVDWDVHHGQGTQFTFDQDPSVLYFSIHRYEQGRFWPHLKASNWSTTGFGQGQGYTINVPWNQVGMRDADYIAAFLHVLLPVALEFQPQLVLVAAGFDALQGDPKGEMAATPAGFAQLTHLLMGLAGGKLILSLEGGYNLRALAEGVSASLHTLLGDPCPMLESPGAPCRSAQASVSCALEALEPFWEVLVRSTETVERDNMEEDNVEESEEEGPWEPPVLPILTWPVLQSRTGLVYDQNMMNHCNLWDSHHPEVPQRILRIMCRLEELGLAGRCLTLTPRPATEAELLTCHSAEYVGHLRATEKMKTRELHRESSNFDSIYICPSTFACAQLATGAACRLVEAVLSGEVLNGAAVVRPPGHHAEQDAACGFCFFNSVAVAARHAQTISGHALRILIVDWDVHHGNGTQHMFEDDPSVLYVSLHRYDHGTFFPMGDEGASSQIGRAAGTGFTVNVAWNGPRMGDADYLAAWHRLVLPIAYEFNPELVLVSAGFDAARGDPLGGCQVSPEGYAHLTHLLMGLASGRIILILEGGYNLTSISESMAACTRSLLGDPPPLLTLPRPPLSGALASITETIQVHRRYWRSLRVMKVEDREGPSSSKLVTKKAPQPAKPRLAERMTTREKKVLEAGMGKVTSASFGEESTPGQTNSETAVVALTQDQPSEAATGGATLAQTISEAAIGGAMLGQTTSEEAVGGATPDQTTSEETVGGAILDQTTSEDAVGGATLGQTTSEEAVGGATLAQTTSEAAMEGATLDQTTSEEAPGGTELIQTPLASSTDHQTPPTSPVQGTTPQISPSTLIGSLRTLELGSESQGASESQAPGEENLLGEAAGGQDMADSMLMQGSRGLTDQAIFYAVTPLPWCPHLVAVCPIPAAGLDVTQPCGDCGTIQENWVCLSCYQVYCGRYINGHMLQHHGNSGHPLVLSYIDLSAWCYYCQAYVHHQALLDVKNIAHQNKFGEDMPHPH
Test: HDAC6 protease-coupled fluorescence (AMC) inhibition assay
Type: biochemical
Conditions: hr enzyme, 10-dose, 3-fold dilution from 50 μM (3: from 300 μM); read-out: IC50 against HDAC6
From the text: The new hydroxamates 2 and 6 were screened and profiled via a protease-coupled assay in which the quantification of HDAC enzyme activity is based on the formation of a free fluorescent group, the 7-amino-4-methyl coumarin (AMC).[42] […] After deacetylation by HDACs, the de(trifluoro)acetylated AMC–peptides were sensitive toward lysine peptidase and free fluorogenic AMC was generated and quantified.[42]
To gain insights into its inhibition profile for human HDACs, we tested 3 against hrHDACs 1–6 and 8 following the above procedure (Table 1).
Individual IC50 values for each HDAC isozyme were measured with the homogeneous fluorescence release HDAC assay.[42]

SMILES	IC50 [nM]
O=C(/C=C/c1ccc(CSc2nc(Cl)cc(-c3ccccc3)n2)cc1)NO [Compound 2, 3-(4-(((4-Chloro-6-phenylpyrimidin-2-yl)thio)methyl)phenyl)-N-hydroxy Acrylamide]	120
CN(C)Cc1ccc(S(=O)(=O)n2ccc3cc(/C=C/C(=O)NO)ccc32)cc1 [Compound 6, 3-(1-((4-((Dimethylamino)methyl)phenyl)sulfonyl)-1H-indol-5-yl)-N-hydroxy Acrylamide]	18
